≈ marks a conversion by molar mass, not a printed value.
How the values were obtained:
Nakaseomyces glabratus [1] = assay: Antifungal activity against Candida glabrata clinical isolate after 24 to 48 hr by CLSI broth microdilution method; type: functional
Nakaseomyces glabratus [2] = assay: microbe, parasite or virus in culture; type: functional; conditions: ATCC 36583
Description: Antifungal activity against Candida glabrata ATCC 36583 after 24 to 48 hr by CLSI broth microdilution method

Candida albicans [3] = assay: microbe, parasite or virus in culture; type: functional; conditions: NRRL Y-27077
Description: Antifungal activity against Candida albicans NRRL Y-27077 after 24 to 48 hr by CLSI broth microdilution method

Enterococcus faecalis = assay: microbe, parasite or virus in culture; type: functional; conditions: ATCC 29212
Description: Antibacterial activity against Enterococcus faecalis ATCC 29212 after 24 to 48 hr by CLSI broth microdilution method

Klebsiella pneumoniae = assay: microbe, parasite or virus in culture; type: functional; conditions: ATCC 700603
Description: Antibacterial activity against Klebsiella pneumoniae ATCC 700603 after 24 to 48 hr by CLSI broth microdilution method

Salmonella typhimurium = assay: microbe, parasite or virus in culture; type: functional, Salmonella enterica subsp. enterica serovar Typhimurium; conditions: Salmonella enterica, NRLL B-4420
Description: Antibacterial activity against Salmonella enterica subsp. enterica serovar Typhimurium NRRL B-4420 after 24 to 48 hr by CLSI broth microdilution method

Proteus vulgaris = assay: microbe, parasite or virus in culture; type: functional; conditions: NRLL B-123
Description: Antibacterial activity against Proteus vulgaris NRLL B-123 after 24 to 48 hr by CLSI broth microdilution method

Pseudomonas aeruginosa = assay: microbe, parasite or virus in culture; type: functional; conditions: ATCC 27853
Description: Antibacterial activity against Pseudomonas aeruginosa ATCC 27853 after 24 to 48 hr by CLSI broth microdilution method

Escherichia coli = assay: microbe, parasite or virus in culture; type: functional; conditions: ATCC 35218
Description: Antibacterial activity against Escherichia coli ATCC 35218 after 24 to 48 hr by CLSI broth microdilution method

Candida parapsilosis = assay: microbe, parasite or virus in culture; type: functional; conditions: Lodderomyces parapsilosis, NRRL Y-12969
Description: Antifungal activity against Candida parapsilosis NRRL Y-12969 after 24 to 48 hr by CLSI broth microdilution method

[Candida] zeylanoides = microbe, parasite or virus in culture; type: functional; conditions: Dujonia zeylanoides, NRRL Y-1774
Description: Antifungal activity against Candida zeylanoides NRRL Y-1774 after 24 to 48 hr by CLSI broth microdilution method

Pichia kudriavzevii = assay: microbe, parasite or virus in culture; type: functional; conditions: NRRL Y-7179
Description: Antifungal activity against Pichia kudriavzevii NRRL Y-7179 after 24 to 48 hr by CLSI broth microdilution method

Candida tropicalis = assay: microbe, parasite or virus in culture; type: functional; conditions: NRRL Y-12968
Description: Antifungal activity against Candida tropicalis NRRL Y-12968 after 24 to 48 hr by CLSI broth microdilution method

Cyberlindnera jadinii = assay: Antifungal activity against Cyberlindnera jadinii NRRL Y-900 after 24 to 48 hr by CLSI broth microdilution method; type: functional; conditions: Williopsis jadinii
Candida albicans [4] = assay: Antifungal activity against Candida albicans clinical isolate after 24 to 48 hr by CLSI broth microdilution method; type: functional
Staphylococcus aureus = assay: microbe, parasite or virus in culture; type: functional; conditions: ATCC 25923
Description: Antibacterial activity against Staphylococcus aureus ATCC 25923 after 24 to 48 hr by CLSI broth microdilution method

MIC (Nakaseomyces glabratus [1]) [µg/mL] | MIC (Nakaseomyces glabratus [2]) [µg/mL] | MIC (Candida albicans [3]) [µg/mL] | MIC (Enterococcus faecalis) [µg/mL] | MIC (Klebsiella pneumoniae) [µg/mL] | MIC (Salmonella typhimurium) [µg/mL] | MIC (Proteus vulgaris) [µg/mL] | MIC (Pseudomonas aeruginosa) [µg/mL] | MIC (Escherichia coli) [µg/mL] | Structure (SMILES) | MIC (Candida parapsilosis) [µg/mL] | MIC ([Candida] zeylanoides) [µg/mL] | MIC (Pichia kudriavzevii) [µg/mL] | MIC (Candida tropicalis) [µg/mL] | MIC (Cyberlindnera jadinii) [µg/mL] | MIC (Candida albicans [4]) [µg/mL] | MIC (Staphylococcus aureus) [µg/mL]
50 | 50 | 50 | 50 | 50 | 50 | 50 | 50 | 50 | COc1cc(Cc2cnc(N)nc2N)cc(OC)c1OC.O=C(O)/C=C\C(=O)O [TRIMETHOPRIM MALEIC ACID SALT] |  |  |  |  |  |  | 
25 | 50 | 50 | 50 | 50 | 50 | 50 | 50 | 50 | COc1cc(Cc2cnc(N)nc2N)cc(OC)c1OC.O.O.O=C(O)C(=O)O [TRIMETHOPRIM OXALIC ACID SALT DIHYDRATE] |  |  |  |  |  |  | 
25 (≈ 86.1 µM) | 50 (≈ 172 µM) | 50 (≈ 172 µM) | 50 (≈ 172 µM) | 50 (≈ 172 µM) | 50 (≈ 172 µM) | 50 (≈ 172 µM) | 50 (≈ 172 µM) | 50 (≈ 172 µM) | COc1cc(Cc2cnc(N)nc2N)cc(OC)c1OC [TRIMETHOPRIM] |  |  |  |  |  |  | 

Structure (SMILES) | MIC (Nakaseomyces glabratus [1]) [µg/mL] | MIC (Nakaseomyces glabratus [2]) [µg/mL] | MIC (Candida albicans [3]) [µg/mL] | MIC (Enterococcus faecalis) [µg/mL] | MIC (Klebsiella pneumoniae) [µg/mL] | MIC (Salmonella typhimurium) [µg/mL] | MIC (Proteus vulgaris) [µg/mL] | MIC (Pseudomonas aeruginosa) [µg/mL] | MIC (Escherichia coli) [µg/mL] | MIC (Candida parapsilosis) [µg/mL] | MIC ([Candida] zeylanoides) [µg/mL] | MIC (Pichia kudriavzevii) [µg/mL] | MIC (Candida tropicalis) [µg/mL] | MIC (Cyberlindnera jadinii) [µg/mL] | MIC (Candida albicans [4]) [µg/mL] | MIC (Staphylococcus aureus) [µg/mL]
CC(=O)N1CCN(c2ccc(OCC3COC(Cn4ccnc4)(c4ccc(Cl)cc4Cl)O3)cc2)CC1 (configuration not stated) [KETOCONAZOLE] | 3.12 (≈ 5.88 µM) | 25 (≈ 47 µM) | 12.5 (≈ 23.5 µM) |  |  |  |  |  |  | 1.56 (≈ 2.94 µM) | 25 (≈ 47 µM) | 25 (≈ 47 µM) | 12.5 (≈ 23.5 µM) | 12.5 (≈ 23.5 µM) | 3.12 (≈ 5.88 µM) | 
O=C(N[C@H](CO)[C@H](O)c1ccc([N+](=O)[O-])cc1)C(Cl)Cl [CHLORAMPHENICOL] |  |  |  | 12.5 (≈ 38.7 µM) | 12.5 (≈ 38.7 µM) | 12.5 (≈ 38.7 µM) | 50 (≈ 155 µM) | 50 (≈ 155 µM) |  |  |  |  |  |  |  | 50 (≈ 155 µM)

From ChEMBL document CHEMBL3046102, “Antibacterial and antifungal activities of some trimethoprim salts” (2012)
